In patent US9242988B2, “2′-cyano substituted nucleoside derivatives and methods of use thereof for the treatment of viral diseases” (Merck Sharp & Dohme Corp., priority 2012, dated 2016) one finds EC50 data, which are given here for eight compounds.

Read-outs that look alike come from different tables or passages of the source.

The test system of this assay is HCV replicon cells (1b). Put plainly: Cell-Based HCV Replicon Assay. The protocol:
To measure cell-based anti-HCV activity of selected compounds of the present invention, replicon cells were seeded at 5000 cells/well in 96-well collagen I-coated Nunc plates in the presence of the test compound. Various concentrations of test compound, typically in 10 serial 2-fold dilutions, were added to the assay mixture, with the starting concentration ranging from 250 μM to 1 μM. The final concentration of dimethylsulfoxide was 0.5%, fetal bovine serum was 5%, in the assay media. Cells were harvested on day 3 by the addition of 1× cell lysis buffer (Ambion cat #8721). The replicon RNA level was measured using real time PCR (Taqman assay). The amplicon was located in 5B. The PCR primers were: 5B.2F, […] (SEQ ID. NO. 1); 5B.2R, […] (SEQ ID. NO. 2); the probe sequence was FAM-labeled […] (SEQ ID. NO. 3). GAPDH RNA was used as endogenous control and was amplified in the same reaction as NS5B (multiplex PCR) using primers and VIC-labeled probe recommended by the manufacturer (PE Applied Biosystem). The real-time RT-PCR reactions were run on ABI PRISM 7900HT Sequence Detection System using the following program: 48° C. for 30 minutes, 95° C. for 10 minutes, 40 cycles of 95° C. for 15 sec, 60° C. for 1 minute. The ΔCT values (CT5B-CTGAPDH) were plotted against the concentration of test compound and fitted to the sigmoid dose-response model using XLfit4 (MDL). […] Alternatively, to quantitate the absolute amount of replicon RNA, a standard curve was established by including serially diluted T7 transcripts of replicon RNA in the Taqman assay. All Taqman reagents were from PE Applied Biosystems. Such an assay procedure was described in detail in e.g. Malcolm et al., Antimicrobial Agents and Chemotherapy 50: 1013-1020 (2006).
On the technique in general: In antiviral work, replicon cells carry a viral genome segment that copies itself.

[1] abbreviates: Hepatitis C virus, 72 h, read-out: 1b EC50.
The mark [2] stands for this setting: Hepatitis C virus, 72 h, replicon RNA level by real time PCR (Taqman), cells harvested on day 3; read-out: 1b EC50.
The mark [3] stands for this setting: replicon RNA level by real time PCR (Taqman), cells harvested on day 3; read-out: 1b EC50.

For orientation: EC50 means the concentration at which the effect is half-maximal. In the case of `CC(C)OC(=O)[C@H](C)NP(=O)(OC[C@H]1O[C@@H](c2ccc3c(N)ncnn23)[C@](C)(C#N)[C@@H]1O)Oc1ccccc1` (single isomer, unassigned) [Compound 11], under setting [1], the EC50 came out at 35 µM.

In the case of `CC(C)OC(=O)COP(=O)(N[C@@H](C)C(=O)OC(C)C)OC[C@H]1O[C@@H](c2ccc3c(N)ncnn23)[C@](C)(C#N)[C@@H]1O` (single isomer, unassigned) [Compound 12], the concentration for a half-maximal effect (EC50) under setting [2] was > 100 µM.

As for `CC(C)OC(=O)[C@H](C)NP(=O)(OC[C@H]1O[C@@H](c2cnc3c(N)ncnn23)[C@](C)(C#N)[C@@H]1O)Oc1ccccc1` (single isomer, unassigned) [Compound 14], the 50% effective concentration (EC50) under setting [1] is > 100 µM.

In the case of `CC(C)OC(=O)[C@H](C)NP(=O)(OC[C@H]1O[C@@H](c2cnc3c(N)ncnn23)[C@](C)(C#N)[C@@H]1O)Oc1ccccc1` (single isomer, unassigned) [Compound 15], the 50% effective concentration (EC50) (read-out: 1b EC50; replicon RNA level by real time PCR (Taqman), cells harvested on day 3) was > 100 µM.

For `CC(C)(C)COP1(=O)OC[C@H]2O[C@@H](c3ccc4c(N)ncnn34)[C@](C)(C#N)[C@@H]2O1` (single isomer, unassigned) [Compound 18], the 50% effective concentration (EC50) under setting [2] amounted to 33 µM.

`CC(C)(C)COP1(=O)OC[C@H]2O[C@@H](c3ccc4c(N)ncnn34)[C@](C)(C#N)[C@@H]2O1` (single isomer, unassigned) [Compound 19]: the EC50 under setting [3] is 46 µM.

For the compound `CC(C)OP1(=O)OC[C@H]2O[C@@H](c3cnc4c(N)ncnn34)[C@](C)(C#N)[C@@H]2O1` (single isomer, unassigned) [Compound 20], the EC50 under setting [2] is 77 µM.

As to `CC(C)OP1(=O)OC[C@H]2O[C@@H](c3cnc4c(N)ncnn34)[C@](C)(C#N)[C@@H]2O1` (single isomer, unassigned) [Compound 21], the EC50 under setting [3] was > 100 µM.
